The values below come from patent US20250073215A1 (priority 2023, published 2025).

One data set deals with BEAS-2B cells. The settings on record: cited from earlier work.
The next data set deals with cholinergic receptor. The settings on record: when interacting with the cholinergic receptor ligand; cited from earlier work.
Data set [1] relates to human bronchial epithelial cells (BEAS-2B cells). To be noted: in vitro; cited from earlier work.
For data set [2] the following is noted: cited from earlier work.

Regarding `Cc1ccc([C@@H]2CCCN2C)cn1` [(S)-2-Methyl-5-(1-methyl-2-pyrrolidinyl)pyridine], the “satisfaction of nicotine craving compared with previously used nicotine products” value (100 individuals, twice a day for 60 days, participants' opinion) is “faster”. Besides, the addictiveness entry (conclusion of the study) is recorded as “not addictive”. In the data set on BEAS-2B cells (BEAS-2B cells), the “effect on CRP expression compared with nicotine” value is “greater negative effect on CRP expression than nicotine”. The “effect on tumour development and metastasis compared with nicotine” value in the data set with BEAS-2B cells (NF-κB p65, EGFR, MET by immunoblotting and real-time PCR) was “greater negative effect on tumour development and metastasis than nicotine”. For the same compound, the “cancer-related proteins (CRPs) with differential expression compared with control group” value in the data set on BEAS-2B cells (transcriptome sequencing, BEAS-2B cells) is 1208. Also, the antinociceptive effects result in the data set on cholinergic receptor is listed as “displays antinociceptive effects”. Further, the “sensitivity of BEAS-2B cells (cytotoxicity) compared with nicotine” value in data set [1] is reported as “more sensitive”.
Regarding `CN1CCC[C@H]1c1cccnc1` [Nicotine, 3-[(2S)-1-methyl-2-pyrrolidinyl]pyridine], the “lethal dose for humans” value in data set [2] was 50 to 100 mg.
